Tests used:
[1] = tested on: Candida albicans ATCC 10231; test: Fungicidal activity, serial dilution technique; assay type: cell-based; details: average of three ± SD, - means non-active
Procedure: (§1) The synthesized compounds were tested for antimicrobial activity against a number of Gram-positive bacteria, Staphylococcus aureus (Sa), Bacillus cereus (Bc) and Enterococcus faecalis (Ef), and Gram-negative bacteria, Escherichia coli (Ec) and Pseudomonas aeruginosa (Pa), including the methicillin-resistant strains S. aureus MRSA-1 (resistant to fluoroquinolones and beta-lactams) and MRSA-2 (resistant to beta-lactams). The methicillin-resistant strains S. aureus were transferred by the Republican Clinical Hospital of the Republic of Tatarstan (Kazan). The fungicidal activity against Candida albicans (Ca) and Trichophyton mentagrophytes var. gypseum (Tm) was studied. These pathogens were chosen because they are the most widespread in the food industry and the healthcare system.
(§2) The antimicrobial activity of the QPSs was determined using the serial dilution technique in Mueller–Hinton Broth 2. The cultures used for testing included the Gram-positive bacteria Staphylococcus aureus ATCC 6538P FDA 209P, Enterococcus faecalis ATCC 2921 and Bacillus cereus ATCC 10702 NCTC 8035, the Gram-negative bacteria Escherichia coli ATCC 25922 and Pseudomonas aeruginosa ATCC 9027, and the fungi Trichophyton mentagrophytes var. gypseum 1773 and Candida albicans ATCC 10231; methicillin-resistant strains of S. aureus MRSA were obtained from hospital patients with chronic tonsillitis (MRSA-1) and sinusitis (MRSA-2) in the Republican Clinical Hospital (Kazan, Russia). Ciprofloxacin and ketoconazole were purchased from Sigma-Aldrich. The bacterial load was 3.0 × 10^5 cfu/mL. The results were recorded every 24 h for 5 days. The cultures were incubated at 37 °C. The experiment was repeated three times. […] The minimum inhibitory concentration (MIC) was defined as the minimum concentration of a compound that inhibits the growth of the corresponding test micro-organism. The growth of bacteria as well as the absence of growth due to the bacteriostatic action of a compound was recorded.

[2] = tested on: Trichophyton mentagrophytes var. gypseum 1773; test: Fungicidal activity, serial dilution technique; assay type: cell-based; details: Tm, average of three ± SD, - means non-active; for MBC / MIC: Trichophyton mentagrophytes; for MBC: read-out: Minimum Bactericidal and Fungicidal Concentration (MBC, MFC), Tm; for MIC: read-out: Minimum Inhibitory Concentration (MIC), Tm
Procedure: as §1, §2

[3] = tested on: methicillin-resistant S. aureus MRSA-2; test: Antimicrobial activity, serial dilution technique in Mueller–Hinton Broth 2; assay type: cell-based, Staphylococcus aureus; details: - means non-active
Procedure: as §1
as §2, with “Ciprofloxacin and ketoconazole were purchased from Sigma-Aldrich.” left out

[4] = tested on: methicillin-resistant S. aureus MRSA-1; test: as above; assay type: cell-based, Staphylococcus aureus; details: - means non-active; for Minimum Bactericidal and Fungicidal Concentration (MBC, MFC), MRSA-1 / MBC: MRSA-1; for MBC: read-out: Minimum Bactericidal and Fungicidal Concentration (MBC, MFC), MRSA-1
Procedure: as §1
as §2, with “Ciprofloxacin and ketoconazole were purchased from Sigma-Aldrich.” left out

[5] = tested on: Enterococcus faecalis ATCC 2921; test: as above; assay type: cell-based; details: average of three ± SD, - means non-active
Procedure: as §1
as §2, with “Ciprofloxacin and ketoconazole were purchased from Sigma-Aldrich.” left out

[6] = tested on: Pseudomonas aeruginosa ATCC 9027; test: as above; assay type: cell-based; details: average of three ± SD, - means non-active; for MBC: read-out: Minimum Bactericidal and Fungicidal Concentration (MBC, MFC), Pa
Procedure: as §1
as §2, with “Ciprofloxacin and ketoconazole were purchased from Sigma-Aldrich.” left out

[7] = tested on: Bacillus cereus ATCC 10702 NCTC 8035; test: as above; assay type: cell-based; details: average of three ± SD, - means non-active
Procedure: as §1
as §2, with “Ciprofloxacin and ketoconazole were purchased from Sigma-Aldrich.” left out

[8] = tested on: Escherichia coli ATCC 25922; test: as above; assay type: cell-based; details: average of three ± SD, - means non-active; for MIC: Escherichia coli, ATCC25922, Ec, read-out: Minimum Inhibitory Concentration (MIC), Ec
Procedure: as §1
as §2, with “Ciprofloxacin and ketoconazole were purchased from Sigma-Aldrich.” left out

[9] = tested on: Staphylococcus aureus ATCC 6538P FDA 209P; test: as above; assay type: cell-based; details: average of three ± SD, - means non-active
Procedure: as §1
as §2, with “Ciprofloxacin and ketoconazole were purchased from Sigma-Aldrich.” left out

[10] = tested on: Escherichia coli ATCC 25922; test: as above; assay type: cell-based; details: average of three ± SD, - means non-active
[11] = MRSA-2 (resistant to beta-lactams)
[12] = MRSA-1 (resistant to fluoroquinolones and beta-lactams)
[13] = Pseudomonas aeruginosa, ATCC9027, Pa

Structure (SMILES) | Minimum Inhibitory Concentration (MIC), MRSA-2 [3, 11] | Minimum Inhibitory Concentration (MIC), MRSA-1 [4, 12] | Minimum Inhibitory Concentration (MIC), Ef [5] | Minimum Inhibitory Concentration (MIC), Pa [6] | Minimum Inhibitory Concentration (MIC), Bc [7] | Minimum Inhibitory Concentration (MIC), Ec [8] | Minimum Inhibitory Concentration (MIC), Sa [9] | Minimum Bactericidal and Fungicidal Concentration (MBC, MFC), Ca [1] | Minimum Inhibitory Concentration (MIC), Ca [1] | Minimum Bactericidal and Fungicidal Concentration (MBC, MFC), Tm [2] | Minimum Inhibitory Concentration (MIC), Tm [2] | Minimum Bactericidal and Fungicidal Concentration (MBC, MFC), MRSA-2 [3] | Minimum Bactericidal and Fungicidal Concentration (MBC, MFC), Ef [5] | Minimum Bactericidal and Fungicidal Concentration (MBC, MFC), Pa [6] | Minimum Bactericidal and Fungicidal Concentration (MBC, MFC), Bc [7] | Minimum Bactericidal and Fungicidal Concentration (MBC, MFC), Ec [10] | MBC [2] | MIC [2] | Minimum Bactericidal and Fungicidal Concentration (MBC, MFC), MRSA-1 [4] | Minimum Bactericidal and Fungicidal Concentration (MBC, MFC), Sa [9] | also measured
CCCCCCCCCCCC[P+](C(C)(C)C)(C(C)(C)C)C(C)(C)C [Compound 12b] | 0.5 ± 0.04 µg/mL | 1.9 ± 0.1 µg/mL | 1.9 ± 0.02 µg/mL | 125 ± 11 µg/mL | 1.9 ± 0.01 µg/mL | 15.6 ± 1.3 µg/mL | 0.5 ± 0.03 µg/mL | 15.6 ± 1.3 µg/mL | 15.6 ± 1.3 µg/mL | 62.5 ± 5.2 µg/mL | 31.3 ± 2.4 µg/mL | 31.3 ± 2.7 µg/mL | 15.6 ± 1.3 µg/mL | 125 ± 10 µg/mL | 62.5 ± 5.5 µg/mL | 15.6 ± 1.2 µg/mL |  |  |  |  | 
CCCCCCCCCCCCC[P+](C(C)(C)C)(C(C)(C)C)C(C)(C)C [Compound 13a, tri-tert-butyl(n-tridecyl)phosphonium] |  |  | 3.9 ± 0.3 µg/mL | 15.6 ± 1.3 µg/mL |  |  |  | 31.3 ± 2.2 µg/mL |  |  |  | 0.5 ± 0.03 µg/mL |  |  | 7.8 ± 0.6 µg/mL |  | 125 ± 10 µg/mL | 125 ± 10 µg/mL |  | 0.5 ± 0.04 µg/mL | MIC ([1]; Candida albicans, ATCC10231, Ca, read-out: Minimum Inhibitory Concentration (MIC), Ca): 15.6 ± 1.2 µg/mL; MIC ([3]; Staphylococcus aureus, MRSA, MRSA-2 (resistant to beta-lactams), read-out: Minimum Inhibitory Concentration (MIC), MRSA-2): 0.3 ± 0.02 µg/mL; MIC ([4]; Staphylococcus aureus, MRSA, MRSA-1 (resistant to fluoroquinolones and beta-lactams), read-out: Minimum Inhibitory Concentration (MIC), MRSA-1): 0.5 ± 0.04 µg/mL; MBC ([4]; Staphylococcus aureus, MRSA): 0.3 ± 0.02 µg/mL; MBC ([5]; Enterococcus faecalis, ATCC2921, Ef, read-out: Minimum Bactericidal and Fungicidal Concentration (MBC, MFC), Ef): 7.8 ± 0.6 µg/mL; MBC [6, 13]: 31.3 ± 2.4 µg/mL; MIC ([7]; Bacillus cereus, Bc, read-out: Minimum Inhibitory Concentration (MIC), Bc): 0.9 ± 0.07 µg/mL; MIC [8]: 3.9 ± 0.02 µg/mL; MIC ([9]; Staphylococcus aureus, Sa, read-out: Minimum Inhibitory Concentration (MIC), Sa): 0.2 ± 0.01 µg/mL; MBC ([10]; Escherichia coli, ATCC25922, Ec, read-out: Minimum Bactericidal and Fungicidal Concentration (MBC, MFC), Ec): 3.9 ± 0.2 µg/mL
CCCCCCCCCCCCCCCCCC[P+](C(C)(C)C)(C(C)(C)C)C(C)(C)C [Compound 18a] | 0.9 ± 0.07 µg/mL | 0.9 ± 0.07 µg/mL | 0.9 ± 0.07 µg/mL |  | 7.8 ± 0.6 µg/mL |  | 0.9 ± 0.08 µg/mL | 3.9 ± 0.2 µg/mL | 1.9 ± 0.1 µg/mL |  |  | 0.9 ± 0.07 µg/mL | 0.9 ± 0.07 µg/mL |  | 31.3 ± 2.5 µg/mL | 15.6 ± 1.1 µg/mL | 125 ± 9 µg/mL | 125 ± 11 µg/mL |  | 0.9 ± 0.07 µg/mL | MBC ([4]; Staphylococcus aureus, MRSA): 15.6 ± 1.2 µg/mL; MBC [6, 13]: 62.5 ± 5.6 µg/mL; MIC ([6]; Pseudomonas aeruginosa, ATCC9027, Pa, read-out: Minimum Inhibitory Concentration (MIC), Pa): 15.6 ± 1.2 µg/mL; MIC [8]: 15.6 ± 1.3 µg/mL

Continued, in another order:

Minimum Inhibitory Concentration (MIC), MRSA-2 [3, 11] | Minimum Inhibitory Concentration (MIC), MRSA-1 [4, 12] | Minimum Inhibitory Concentration (MIC), Ef [5] | Minimum Inhibitory Concentration (MIC), Pa [6] | Minimum Inhibitory Concentration (MIC), Bc [7] | Minimum Inhibitory Concentration (MIC), Ec [8] | Minimum Inhibitory Concentration (MIC), Sa [9] | Structure (SMILES) | Minimum Bactericidal and Fungicidal Concentration (MBC, MFC), Ca [1] | Minimum Inhibitory Concentration (MIC), Ca [1] | Minimum Bactericidal and Fungicidal Concentration (MBC, MFC), Tm [2] | Minimum Inhibitory Concentration (MIC), Tm [2] | Minimum Bactericidal and Fungicidal Concentration (MBC, MFC), MRSA-2 [3] | Minimum Bactericidal and Fungicidal Concentration (MBC, MFC), Ef [5] | Minimum Bactericidal and Fungicidal Concentration (MBC, MFC), Pa [6] | Minimum Bactericidal and Fungicidal Concentration (MBC, MFC), Bc [7] | Minimum Bactericidal and Fungicidal Concentration (MBC, MFC), Ec [10] | MBC [2] | MIC [2] | Minimum Bactericidal and Fungicidal Concentration (MBC, MFC), MRSA-1 [4] | Minimum Bactericidal and Fungicidal Concentration (MBC, MFC), Sa [9] | also measured
0.5 ± 0.03 µg/mL | 1.9 ± 0.1 µg/mL | 0.5 ± 0.04 µg/mL | 3.9 ± 0.02 µg/mL | 1.9 ± 0.1 µg/mL | 1.9 ± 0.1 µg/mL | 0.5 ± 0.03 µg/mL | CCCCCCCCCCCCCCCC[P+](C(C)(C)C)(C(C)(C)C)C(C)(C)C [Compound 16b] | 3.9 ± 0.2 µg/mL | 3.9 ± 0.2 µg/mL |  |  | 3.9 ± 0.2 µg/mL | 0.5 ± 0.03 µg/mL | 62.5 ± 5.3 µg/mL | 31.3 ± 2.4 µg/mL | 1.9 ± 0.1 µg/mL | 62.5 ± 5.5 µg/mL | 62.5 ± 5.6 µg/mL | 15.6 ± 1.2 µg/mL | 0.5 ± 0.03 µg/mL | 
0.5 ± 0.03 µg/mL | 0.3 ± 0.01 µg/mL | 0.5 ± 0.04 µg/mL | 3.9 ± 0.2 µg/mL | 0.5 ± 0.03 µg/mL | 3.9 ± 0.2 µg/mL | 0.2 ± 0.01 µg/mL | CCCCCCCCCCCCCCC[P+](C(C)(C)C)(C(C)(C)C)C(C)(C)C [Compound 15b] | 15.6 ± 1.2 µg/mL | 1.9 ± 0.1 µg/mL | 62.5 ± 5.2 µg/mL | 62.5 ± 5.5 µg/mL | 0.5 ± 0.04 µg/mL | 3.9 ± 0.2 µg/mL | 3.9 ± 0.3 µg/mL | 15.6 ± 1.3 µg/mL | 3.9 ± 0.2 µg/mL |  |  | 0.3 ± 0.01 µg/mL | 0.5 ± 0.03 µg/mL | 
